In experiment [1] the target is T1, Neuronal acetylcholine receptor; alpha3/beta4 (Homo sapiens, UniProt P30926+P32297). Description: Displacement of [3H]-epibatidine from human alpha3beta4 nACh receptor expressed in HEK293 cells preincubated for 5 mins followed by radioligand addition by beta counting analysis. It is filed as cell-based. Background: Displacement assays read how much labelled ligand stays bound in the presence of the test substance.

Experiment [2] has as its target Neuronal acetylcholine receptor; alpha4/beta2 (Rattus norvegicus, UniProt P09483+P12390). In words: Displacement of [3H]-epibatidine from rat alpha4beta2 nACh receptor expressed in rat cortical membrane preincubated for 30 mins followed by radioligand addition by […] analysis. It is filed as cell membranes.
The target of experiment [3] is Neuronal acetylcholine receptor subunit alpha-7 (Rattus norvegicus, UniProt Q05941). Description: Displacement of [125I] alpha bungarotoxin from rat alpha7 nACh receptor expressed in rat hippocampal membrane preincubated for 30 mins followed by radioligand addition by gamma counting analysis. The experiment is classed as cell membranes, Hippocampus.
The species entered for experiment [4] is Homo sapiens. In words: Selectivity ratio of Ki for rat alpha4beta2 nACh receptor to Ki for human alpha3beta4 nACh receptor.
The species entered for experiment [5] is Homo sapiens. In words: Selectivity ratio of Ki for rat alpha7 nACh receptor to Ki for human alpha3beta4 nACh receptor.
Experiment [6] concerns the target T2, Neuronal acetylcholine receptor; alpha4/beta2 (Homo sapiens) (UniProt P17787+P43681). Description: Antagonist activity at human alpha4beta2 nACh receptor. The experiment is classed as protein-complex assay.
In experiment [7] the target is T1, Neuronal acetylcholine receptor; alpha3/beta4. Description: Antagonist activity at human alpha3beta4 nACh receptor. The experiment is classed as protein-complex assay.
The target in experiment [8] is T3, Neuronal acetylcholine receptor subunit alpha-7 (Homo sapiens, UniProt P36544). In words: Agonist activity at human alpha7 nACh receptor expressed in rat GH4C1 cells assessed as increase in current amplitudes after 2 to 3 days by patch clamp assay. It is filed as cell-based, GH4-C1. (In general: The patch-clamp technique gives a direct electrical read-out from membranes.)

For experiment [9], the target named is T1, Neuronal acetylcholine receptor; alpha3/beta4. In words: Agonist activity at human alpha3beta4 nACh receptor expressed in rat GH4C1 cells assessed as increase in current amplitudes after 2 to 3 days by patch clamp assay. The experiment is classed as cell-based, GH4-C1.
The target in experiment [10] is T2, Neuronal acetylcholine receptor; alpha4/beta2 (Homo sapiens). In words: Agonist activity at human alpha4beta2 nACh receptor expressed in rat […] cells assessed as increase in current amplitudes at 0.1 to 100 uM after 2 to 3 days by patch clamp assay. The experiment is classed as cell-based.
Experiment [11] deals with T1, Neuronal acetylcholine receptor; alpha3/beta4. In words: Agonist activity at human alpha3beta4 nACh receptor expressed in rat […] cells assessed as increase in current amplitudes at 0.1 to 100 uM after 2 to 3 days by patch clamp assay relative to acetylcholine. The experiment is classed as cell-based.
Experiment [12] deals with T3, Neuronal acetylcholine receptor subunit alpha-7. In words: Agonist activity at human alpha7 nACh receptor expressed in rat GH4C1 cells assessed as increase in current amplitudes at 0.1 to 100 uM after 2 to 3 days by patch clamp assay. The experiment is classed as cell-based. To be noted: GH4-C1.

Structures are written as SMILES. Active and inactive are the calls of the source. The rule behind the calls is not given here.

The source of these data is ChEMBL document CHEMBL3758078, “Modification of the anabaseine pyridine nucleus allows achieving binding and functional selectivity for the α3β4 nicotinic acetylcholine receptor subtype” (Eur J Med Chem, 2016).

T1 sequence (P30926 whole entry): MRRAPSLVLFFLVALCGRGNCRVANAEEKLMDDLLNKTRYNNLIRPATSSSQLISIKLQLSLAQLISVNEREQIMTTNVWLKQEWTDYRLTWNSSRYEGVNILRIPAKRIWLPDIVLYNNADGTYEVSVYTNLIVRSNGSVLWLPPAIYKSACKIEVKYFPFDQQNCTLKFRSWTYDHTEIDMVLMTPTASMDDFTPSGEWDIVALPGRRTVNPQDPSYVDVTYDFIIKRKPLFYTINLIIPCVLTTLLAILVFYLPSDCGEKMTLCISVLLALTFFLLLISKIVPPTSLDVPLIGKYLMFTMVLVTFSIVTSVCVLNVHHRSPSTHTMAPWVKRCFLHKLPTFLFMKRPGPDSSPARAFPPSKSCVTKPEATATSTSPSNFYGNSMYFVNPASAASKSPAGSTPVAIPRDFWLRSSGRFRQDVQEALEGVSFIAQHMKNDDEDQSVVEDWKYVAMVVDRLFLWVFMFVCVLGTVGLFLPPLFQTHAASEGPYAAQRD
T1 sequence (P32297 whole entry): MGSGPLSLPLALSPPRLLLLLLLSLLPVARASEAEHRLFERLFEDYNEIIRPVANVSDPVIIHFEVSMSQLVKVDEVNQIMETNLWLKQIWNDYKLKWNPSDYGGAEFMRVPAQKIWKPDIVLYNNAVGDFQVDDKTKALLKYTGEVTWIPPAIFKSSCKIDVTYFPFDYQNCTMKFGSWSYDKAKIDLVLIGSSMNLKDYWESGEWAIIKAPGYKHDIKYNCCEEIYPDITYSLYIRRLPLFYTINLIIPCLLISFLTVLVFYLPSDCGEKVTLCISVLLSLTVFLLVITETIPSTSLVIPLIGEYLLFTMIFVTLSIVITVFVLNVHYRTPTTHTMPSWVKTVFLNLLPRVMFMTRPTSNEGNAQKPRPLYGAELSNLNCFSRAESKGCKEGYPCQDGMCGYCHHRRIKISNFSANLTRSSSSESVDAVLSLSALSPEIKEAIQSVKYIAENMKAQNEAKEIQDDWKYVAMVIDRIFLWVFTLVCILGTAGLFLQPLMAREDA
Sequence of Neuronal acetylcholine receptor; alpha4/beta2 (P09483 whole entry): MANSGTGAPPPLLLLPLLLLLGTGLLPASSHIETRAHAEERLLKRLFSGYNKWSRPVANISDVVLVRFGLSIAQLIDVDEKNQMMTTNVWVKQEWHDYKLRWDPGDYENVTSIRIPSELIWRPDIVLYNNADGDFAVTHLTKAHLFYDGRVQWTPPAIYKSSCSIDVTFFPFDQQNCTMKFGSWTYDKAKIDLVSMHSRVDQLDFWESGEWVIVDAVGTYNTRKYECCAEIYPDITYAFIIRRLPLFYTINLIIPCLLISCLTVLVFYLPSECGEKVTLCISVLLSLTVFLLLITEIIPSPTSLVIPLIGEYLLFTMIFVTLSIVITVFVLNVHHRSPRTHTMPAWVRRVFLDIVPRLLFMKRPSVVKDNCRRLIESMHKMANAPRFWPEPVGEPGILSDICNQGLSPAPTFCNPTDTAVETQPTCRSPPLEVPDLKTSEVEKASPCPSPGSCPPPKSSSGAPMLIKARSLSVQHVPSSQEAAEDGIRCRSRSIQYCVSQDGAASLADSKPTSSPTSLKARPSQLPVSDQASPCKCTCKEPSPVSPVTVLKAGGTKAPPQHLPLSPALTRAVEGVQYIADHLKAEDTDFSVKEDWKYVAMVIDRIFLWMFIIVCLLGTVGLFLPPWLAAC
Sequence of Neuronal acetylcholine receptor; alpha4/beta2 (P12390 whole entry): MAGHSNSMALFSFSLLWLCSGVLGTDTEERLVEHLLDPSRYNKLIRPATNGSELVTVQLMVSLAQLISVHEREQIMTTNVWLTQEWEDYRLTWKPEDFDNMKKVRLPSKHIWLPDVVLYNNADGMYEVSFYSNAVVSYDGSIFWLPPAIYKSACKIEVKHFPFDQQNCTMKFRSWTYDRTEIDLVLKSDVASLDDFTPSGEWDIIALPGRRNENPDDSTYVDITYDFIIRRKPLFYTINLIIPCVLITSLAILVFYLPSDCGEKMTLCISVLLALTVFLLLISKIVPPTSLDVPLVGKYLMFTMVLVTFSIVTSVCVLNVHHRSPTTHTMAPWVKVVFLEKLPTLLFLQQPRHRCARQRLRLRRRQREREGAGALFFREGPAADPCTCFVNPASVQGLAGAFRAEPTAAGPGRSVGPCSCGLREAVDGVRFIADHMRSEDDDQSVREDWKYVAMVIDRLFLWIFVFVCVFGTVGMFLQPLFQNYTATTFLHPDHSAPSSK
Sequence of Neuronal acetylcholine receptor subunit alpha-7 (Rattus norvegicus, UniProt Q05941) (Q05941 whole entry): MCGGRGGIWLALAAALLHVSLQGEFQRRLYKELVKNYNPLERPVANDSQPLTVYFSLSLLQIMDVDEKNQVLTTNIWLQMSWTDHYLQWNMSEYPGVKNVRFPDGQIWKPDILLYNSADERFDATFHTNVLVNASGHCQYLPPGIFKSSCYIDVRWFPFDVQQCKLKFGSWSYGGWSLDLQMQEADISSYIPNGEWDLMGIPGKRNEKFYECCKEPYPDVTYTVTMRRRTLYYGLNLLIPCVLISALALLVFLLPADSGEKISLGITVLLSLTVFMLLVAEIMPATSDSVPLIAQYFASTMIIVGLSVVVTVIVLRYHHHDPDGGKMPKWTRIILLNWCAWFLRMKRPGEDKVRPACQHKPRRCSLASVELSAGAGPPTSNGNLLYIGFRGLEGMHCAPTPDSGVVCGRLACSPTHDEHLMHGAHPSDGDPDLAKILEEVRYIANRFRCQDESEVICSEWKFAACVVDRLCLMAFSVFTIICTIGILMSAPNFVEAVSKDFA
T3 sequence (P36544 whole entry): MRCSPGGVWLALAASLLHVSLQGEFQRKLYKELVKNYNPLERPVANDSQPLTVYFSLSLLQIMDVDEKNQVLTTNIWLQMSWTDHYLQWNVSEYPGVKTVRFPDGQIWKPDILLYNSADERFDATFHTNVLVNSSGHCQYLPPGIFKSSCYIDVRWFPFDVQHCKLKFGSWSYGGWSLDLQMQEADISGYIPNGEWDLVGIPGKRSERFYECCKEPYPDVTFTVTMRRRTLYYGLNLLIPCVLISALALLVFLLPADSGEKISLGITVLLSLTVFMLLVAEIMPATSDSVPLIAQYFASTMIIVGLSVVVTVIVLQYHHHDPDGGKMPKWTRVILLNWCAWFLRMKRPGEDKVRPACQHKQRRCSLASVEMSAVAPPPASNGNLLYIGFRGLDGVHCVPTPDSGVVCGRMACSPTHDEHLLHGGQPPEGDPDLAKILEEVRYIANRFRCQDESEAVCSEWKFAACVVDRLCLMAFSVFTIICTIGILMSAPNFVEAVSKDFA

As for `c1ccc(C2=NCCCC2)cc1`, the figures for the Ki in experiment [1], in experiment [2] and in experiment [3] were 194 nM, 2080 nM and 2400 nM, respectively. Besides, the Ratio Ki in the experiment listed under Homo sapiens [4] was found to be 11; in the experiment filed under Homo sapiens [5], 12.

For `OCc1cccc([C@H]2C[C@@H]3CC[C@H]2N3)c1` (racemic), the Ki (in general, a measure of affinity in units of concentration, obtained from inhibition or displacement) is 92 nM in [1], 429 nM in experiment [2] and 1800 nM in experiment [3]. Also, the Ratio Ki in the experiment filed under Homo sapiens [4] came out at 4.7; in the experiment listed under Homo sapiens [5] it was 20.

For `Fc1cc(Br)cc(C2=NCCCC2)c1`, the results for the inhibitory constant (Ki) in experiment [1], in [2] and in experiment [3] were 48 nM, 1770 nM and 204 nM, respectively. The Ratio Ki in the experiment filed under Homo sapiens [4] amounted to 37; in the experiment filed under Homo sapiens [5], 4.3.

With `Fc1cccc(C2=NCCCC2)c1`, the figures for the Ki in [1], in [2] and in [3] were 108 nM, 2040 nM and 2370 nM, respectively. Moreover, the Ratio Ki came to 19 in the experiment listed under Homo sapiens [4] and 22 in the experiment listed under Homo sapiens [5].

Regarding `Clc1cccc(C2=NCCCC2)c1`, the inhibition constant Ki in experiment [1] came to 77.2 nM; in experiment [2] it was 11500 nM; in experiment [3], 394 nM. Further, the Ratio Ki in the experiment filed under Homo sapiens [4] is 149; in the experiment listed under Homo sapiens [5], 5.1.

`OCc1cc(F)cc(C2=NCCCC2)c1`: the Ki stood at 80 nM in experiment [1], 744 nM in [2] and 821 nM in [3]. The Ratio Ki in the experiment filed under Homo sapiens [4] stood at 9.3; in the experiment listed under Homo sapiens [5], 10.

On to `Brc1cccc(C2=NCCCC2)c1`, for which the Ki was found to be 29.8 nM in experiment [1], 5020 nM in experiment [2] and 43.2 nM in experiment [3]. Moreover, the Ratio Ki was 168 in the experiment filed under Homo sapiens [4] and 1.5 in the experiment listed under Homo sapiens [5].

With `Brc1cc(Br)cc(C2=NCCCC2)c1`, the inhibitory constant (Ki) came to 70.8 nM in experiment [1], 18800 nM in experiment [2] and 343 nM in experiment [3]. The Ratio Ki in the experiment filed under Homo sapiens [4] was 266; in the experiment filed under Homo sapiens [5] it was 4.8. In addition, the inhibition entry in experiment [6] and in experiment [7] was “inactive” each time.

As for `c1cncc(C2=NCCCC2)c1` [ANABASEINE], the inhibition constant Ki in [1] worked out at 107 nM; in experiment [2], 67 nM; in [3], 32 nM. Moreover, the Ratio Ki in the experiment filed under Homo sapiens [4] was found to be 0.6; in the experiment listed under Homo sapiens [5] it was 0.3.

For the molecule `Oc1cccc([C@H]2C[C@@H]3CC[C@H]2N3)c1` (racemic), the results for the inhibitory constant (Ki) in experiment [1], in [2] and in [3] were 80 nM, 127 nM and 609 nM, respectively. For the same molecule, the Ratio Ki in the experiment listed under Homo sapiens [4] is 1.6; in the experiment filed under Homo sapiens [5], 7.6.

For the molecule `Cc1cccc(C2=NCCCC2)c1`, the results for the inhibition constant (Ki) in experiment [1], in experiment [2] and in experiment [3] were 155 nM, 1450 nM and 384 nM, respectively. Also, the Ratio Ki in the experiment filed under Homo sapiens [4] turned out to be 9.4; in the experiment filed under Homo sapiens [5] it was 2.5.

Regarding `OCc1cccc(C2=NCCCC2)c1`, the inhibition constant (Ki) was determined as 80 nM in [1], 35000 nM in experiment [2] and 158 nM in [3]. The Ratio Ki came to 438 in the experiment filed under Homo sapiens [4] and 2 in the experiment filed under Homo sapiens [5]. Moreover, the values for the half-maximal effective concentration (EC50) in [8] and in [9] were 60000 nM and 20000 nM, respectively.

As for `Ic1cccc(C2=NCCCC2)c1`, the inhibitory constant (Ki) turned out to be 4.7 nM in [1], 3790 nM in experiment [2] and 11.3 nM in [3]. In addition, the Ratio Ki came out at 806 in the experiment filed under Homo sapiens [4] and 2.4 in the experiment listed under Homo sapiens [5]. For the same molecule, the outcome in experiment [10] and in experiment [12] was inactive. In [11], the maximal effect (Emax) (in general, the greatest response seen or fitted, relative to the assay's reference) came out at 60%. In addition, the inhibition result in [6] and in experiment [7] was “inactive” throughout.

With `Oc1cccc(C2=NCCCC2)c1`, the Ki turned out to be 680 nM in experiment [1], 32000 nM in experiment [2] and 9300 nM in [3]. For the same molecule, the results for the Ratio Ki in the experiment listed under Homo sapiens [4] and in the experiment listed under Homo sapiens [5] were 47 and 14, respectively.
